Measurements reported in the supplement of paper PMC11061612.

Experiments:
Assay in all cases: Bliss excess, mean over the matrix (fraction); higher = more synergy
[1] = test system: NCI-H2023 (Non-Small Cell Lung Carcinoma)
Method in brief: (§1)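 After 24 hours at 37°C and 5% CO2 in 1536-well plates, cells in DMEM/F12 or RPMI plus 10% FBS received two-drug dose matrices for 72 hours. Viability came from CellTiter-Glo 2.0 luminescence and was scaled as inhibition, anchored at 0 by vehicle wells and at 1 by blank wells. Combination Emax is taken as the second-highest inhibition in the matrix, and Bliss excess as the observed combination effect less EA + EB − EA·EB, with EA and EB the single-agent effects.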

[2] = test system: NCI-H1944 (Lung Adenocarcinoma)
Method in brief: as §1

[3] = test system: HT-3 (Cervical Carcinoma)
Method in brief: as §1

[4] = test system: NCI-H1435 (Non-Small Cell Lung Carcinoma)
Method in brief: as §1

HT-144 (Melanoma) = test system: HT-144 (Melanoma)
Method in brief: as §1

A375 (Melanoma) = test system: A375 (Melanoma)
Method in brief: as §1

[5] = test system: C2BBe1 (Colorectal Carcinoma)
Method in brief: as §1

[6] = test system: BC-1 (B-Cell Non-Hodgkin's Lymphoma)
Method in brief: as §1

[7] = test system: L-363 (Plasma Cell Myeloma)
Method in brief: as §1

[8] = test system: COR-L105 (Lung Adenocarcinoma)
Method in brief: as §1

[9] = test system: RPMI-8402 (T-Lymphoblastic Leukemia)
Method in brief: as §1

[10] = test system: KNS-62 (Squamous Cell Lung Carcinoma)
Method in brief: as §1

[11] = test system: SNU-1 (Gastric Carcinoma)
Method in brief: as §1

[12] = test system: SW1463 (Colorectal Carcinoma)
Method in brief: as §1

[13] = test system: MRK-nu-1 (Breast Carcinoma)
Method in brief: as §1

[14] = test system: NCI-H2009 (Lung Adenocarcinoma)
Method in brief: as §1

[15] = test system: Daudi (Burkitt's Lymphoma)
Method in brief: as §1

[16] = test system: GRANTA-519 (B-Cell Non-Hodgkin's Lymphoma)
Method in brief: as §1

GCIY (Gastric Carcinoma) = test system: GCIY (Gastric Carcinoma)
Method in brief: as §1

SMILES	Bliss excess [1]	Bliss excess [2]	Bliss excess [3]	Bliss excess [4]	Bliss excess (HT-144 (Melanoma))	Bliss excess (A375 (Melanoma))	Bliss excess [5]	Bliss excess [6]	Bliss excess [7]	Bliss excess [8]	Bliss excess [9]	Bliss excess [10]	Bliss excess [11]	Bliss excess [12]	Bliss excess [13]	Bliss excess [14]	Bliss excess [15]	Bliss excess [16]	Bliss excess (GCIY (Gastric Carcinoma))
CN(C)CCCOc1ccc(-c2ccc3ncc4c(c3c2)n(C2CCOCC2)c(=O)n4C)cn1 [AZD0156] + C=CCn1c(=O)c2cnc(Nc3ccc(N4CCN(C)CC4)cc3)nc2n1-c1cccc(C(C)(C)O)n1 [AZD1775] (first compound max 1 µM, partner max 1 µM)	0.0007	-0.0218	-0.023	-0.0201	-0.0268	-0.0275	0.0003	-0.0006	0.0057	-0.0414	0.0026	-0.0373	-0.003	-0.0323	-0.0082	-0.0695	-0.0243	-0.0268	-0.0428
CN(C)CCCOc1ccc(-c2ccc3ncc4c(c3c2)n(C2CCOCC2)c(=O)n4C)cn1 [AZD0156] + CCN(CCO)CCCOc1ccc2c(Nc3cc(CC(=O)Nc4cccc(F)c4)[nH]n3)ncnc2c1 [AZD2811] (first compound max 1 µM, 7x7, partner max 1 µM)	0.0066	-0.0077	-0.039	-0.0219	0.0066	-0.0112	-0.0183	0.0234	0.0096	-0.0457	-0.0022	-0.0213	0.093	-0.0322	0.0186	-0.0224	0.107	0.0447	-0.0301
CN(C)CCCOc1ccc(-c2ccc3ncc4c(c3c2)n(C2CCOCC2)c(=O)n4C)cn1 [AZD0156] + C[C@@H]1COCCN1C2=NC(=NC(=C2)C3(CC3)[S@](=N)(=O)C)C4=C5C=CNC5=NC=C4 [AZD6738] (first compound max 1 µM, 7x7, partner max 10 µM)	-0.021	0.0062	0.0031	-0.0134	-0.0484	0.0378	-0.0234	-0.0305	0.0767	-0.0779	0.0028	-0.0343	0.0461	-0.0057	-0.0411	-0.0045	-0.0031	-0.0335	0.0607
C=CCn1c(=O)c2cnc(Nc3ccc(N4CCN(C)CC4)cc3)nc2n1-c1cccc(C(C)(C)O)n1 [AZD1775] + C[C@@H]1COCCN1C2=NC(=NC(=C2)C3(CC3)[S@](=N)(=O)C)C4=C5C=CNC5=NC=C4 [AZD6738] (first compound max 1 µM, partner max 10 µM)	-0.0674	0.0456	0.0386	0.0291	-0.0482	0.0154	0.0278	0.0338	0.0474	-0.0411	0.0379	0.0257		-0.0807	0.0633	0.0987	0.0329	0.0068	0.0091
C=CCn1c(=O)c2cnc(Nc3ccc(N4CCN(C)CC4)cc3)nc2n1-c1cccc(C(C)(C)O)n1 [AZD1775] + O=C(c1cc(Cc2n[nH]c(=O)c3ccccc23)ccc1F)N1CCN(C(=O)C2CC2)CC1 [Olaparib] (first compound max 1 µM, partner max 10 µM)	-0.039	-0.043	-0.0055	0.0211	-0.0681	-0.0161	-0.0322	-0.0326	-0.0153	-0.0881	0.0113	-0.0293	-0.0425	-0.0418	-0.0311	0.0075	0.0043	-0.0679	-0.0521
CCN(CCO)CCCOc1ccc2c(Nc3cc(CC(=O)Nc4cccc(F)c4)[nH]n3)ncnc2c1 [AZD2811] + C=CCn1c(=O)c2cnc(Nc3ccc(N4CCN(C)CC4)cc3)nc2n1-c1cccc(C(C)(C)O)n1 [AZD1775] (first compound max 1 µM, partner max 1 µM)	0.0031	0.0422	-0.0176	-0.0181	0.0516	0.0143	0.024	-0.031	-0.0312	-0.0415	-0.0544	-0.0339	0.0679	-0.0023	0.0147	0.0477	0.0733	-0.013	0.0503
CN(CCO)CC[C@H](CSc1ccccc1)Nc1ccc(S(=O)(=O)NC(=O)c2ccc(N3CCC([C@@H](O)c4ccccc4-c4ccc(Cl)cc4)CC3)cc2)cc1S(=O)(=O)C(F)(F)F [AZD4320] + C=CCn1c(=O)c2cnc(Nc3ccc(N4CCN(C)CC4)cc3)nc2n1-c1cccc(C(C)(C)O)n1 [AZD1775] (first compound max 1 µM, partner max 1 µM)	-0.0108	0.0312	-0.0296	0.0482	0.0392	0.0133	-0.0286	0.0386	0.032	0.0129	0.0269	-0.0543	0.127	-0.044	-0.0295		-0.0249	0.0729	0.0735
COc1nnc2ccc(N3CCC(c4ccc(OCCN5CCN(C)C(=O)[C@H]5C)cc4)CC3)nn12 [AZD5153] + CN(CC[C@H](CSC1=CC=CC=C1)NC2=C(C=C(C=C2)S(=O)(=O)NC(=O)C3=CC=C(C=C3)N4CCC(CC4)[C@H](C5=CC=CC=C5C6=CC=C(C=C6)Cl)O)S(=O)(=O)C(F)(F)F)CCO [AZD4320] (first compound max 1 µM, 7x7, partner max 1 µM)		0.0269	0.0347		0.0439	0.0183	-0.0521						0.0023				0.0159	0.0352	
Cc1c2c(nn1C)CSCc1cc(n(C)n1)CSc1cc(c3ccccc3c1)OCCCc1c(C(=O)O)n(C)c3c-2c(Cl)ccc13 [AZD5991] + CN(C)CCCOc1ccc(-c2ccc3ncc4c(c3c2)n(C2CCOCC2)c(=O)n4C)cn1 [AZD0156] (first compound max 1 µM, 7x7, partner max 1 µM)	-0.0069	0.0049	0.0222	0.0719	-0.0352	0.0053	0.0009	0.0274	0.0235	-0.0139	-0.0536	-0.0201	-0.0144	-0.0212	-0.028	-0.0204	0.0362	-0.0017	
Cc1c2c(nn1C)CSCc1cc(n(C)n1)CSc1cc(c3ccccc3c1)OCCCc1c(C(=O)O)n(C)c3c-2c(Cl)ccc13 [AZD5991] + C[C@@H]1COCCN1C2=NC(=NC(=C2)C3(CC3)[S@](=N)(=O)C)C4=C5C=CNC5=NC=C4 [AZD6738] (first compound max 1 µM, 7x7, partner max 10 µM)	-0.0078		0.08	0.0488	0.0039	0.0291	-0.0093	-0.0396	-0.0625	-0.0407	-0.0027	0.0235	0.035	-0.023	0.0056	0.0199	0.0874	0.0107	-0.0184
Cc1c2c(nn1C)CSCc1cc(n(C)n1)CSc1cc(c3ccccc3c1)OCCCc1c(C(=O)O)n(C)c3c-2c(Cl)ccc13 [AZD5991] + Cc1cc2ncnn2cc1Nc1ncc2c(n1)n(C1CCOCC1)c(=O)n2C [AZD7648] (first compound max 1 µM, 7x7, partner max 10 µM)	-0.0423	-0.039	-0.0173	-0.0055	-0.0131	-0.0244	-0.0449	0.0172	0.0345	-0.0645		0.0266	-0.0307	-0.015	-0.0058	-0.0188	0.0041	-0.0268	-0.0242
C[C@@H]1COCCN1c1cc(C2([S@](C)(=N)=O)CC2)nc(-c2ccnc3[nH]ccc23)n1 [AZD6738] + O=C(c1cc(Cc2n[nH]c(=O)c3ccccc23)ccc1F)N1CCN(C(=O)C2CC2)CC1 [Olaparib] (first compound max 10 µM, 7x7, partner max 10 µM)	0.0867	0.0194	0.0399	0.0203	0.0461	0.0238	0.0009	-0.0041	-0.0892	-0.0435	0.013	0.0026	-0.0358		0.0457	0.0046	-0.0239	-0.0308	-0.0433
CC(=O)c1c(C)c2cnc(Nc3ccc(N4CCNCC4)cn3)nc2n(C2CCCC2)c1=O [Palbociclib] + CN(CC[C@H](CSC1=CC=CC=C1)NC2=C(C=C(C=C2)S(=O)(=O)NC(=O)C3=CC=C(C=C3)N4CCC(CC4)[C@H](C5=CC=CC=C5C6=CC=C(C=C6)Cl)O)S(=O)(=O)C(F)(F)F)CCO [AZD4320] (first compound max 10 µM, 7x7, partner max 1 µM)		-0.0915	-0.0431		-0.0774	-0.0569	-0.0652						-0.066				0.0218	0.0102	
